Experimental data reported in patent US6156790A, “C-10 carbon-substituted artemisinin-like trioxane compounds having antimalarial, antiproliferative and antitumor activities” (priority 1997, dated 2000).

Assays:
[1] = system: chloroquine-sensitive P. falciparum (NF54); assay: In vitro antimalarial activity ([3H]hypoxanthine incorporation); format: cell-based; conditions: for IC50: Plasmodium falciparum, NF54; for IC50 compared with artemisinin: in words
Experimental: Activity was determined by measuring the incorporation of [^3 H]hypoxanthine, by the methods of Desjardins and Milhouse, with the following modofications, see […].; Haynes, […]. Antimicrob. Agents Chemother., 16:710 (1979); Milhous, W. K.; Weatherly, […].; Antimicrob. Agents Chemother., 27: 525 (1985). […] Parasitemia was maintained at 0.05-3% and doubling time at approximately 15 hours by twice weekly change of medium and replenishment with fresh erythrocytes. […] Sigma-Aldrich #27,043-1). DMSO solutions were diluted 500-fold in medium, serially diluted in 0.2% DMSO in medium (to maintain constant solvent concentration), then 100 μL aliquots were pipetted into microtiter plate wells (Costar 3595). […] Plates included at least 8 wells of no drug controls (4 with and 4 without DMSO) and 4 wells of uninfected erythrocytes. […] Cells were harvested (Brandel MB-48R) onto GF-C glass filters (Brandel). The filters were washed five times with 3 mL water per sample spot, dried under a heat lamp, and counted (Beckman Model LS-6500) in scintillation cocktail (ICN Cytoscint). Decays per minute (dpm) values were downloaded and analyzed (Power MFacintosh 7200/90; Microsoft Excel 5.0), to yield the mean and standard deviation at each drug concentration.

[2] = system: murine keratinocyte cell line PE; assay: growth inhibition of PE cells (MTT assay); format: cell-based; conditions: 100 nanomolar
Experimental: To determine the inhibitory effect of the compositions of the present invention on cell proliferation, screening assays were performed on a murine keratinocyte cell line PE. Cell line PE was chosen for its particular sensitivity to the induction of ornithine decarboxylase (ODC) activity by the extensively characterized tumor promoter TPA. […] PE cell culture medium consisted of Eagle's minimal essential medium without calcium chloride (Whittaker Bioproducts, Walkersville, Mass.) supplemented with 8% chelexed fetal calf serum and 1% antibiotic-antimycotic (Gibco BRL) and the addition of CaCl2 to 0.05 mM Ca^++.
Growth Inhibition. Growth curves, shown in FIGS. 1 and 2, for PE cells treated with calcitriol and the C-10 carbon-substituted dimers 21, 22, 26, 27, and 28 generated by assay for the reduction of the tetrazolium-based compound MTT, see Charmichael, et al., Cancer Res., 47:936-942 (1987). […] PE cells were seeded at a density of 5,000 cells/well in 50 μL of medium into 96-well microtiter plates. Twelve hours later, the medium was removed, and cells were treated with 100 μL of fresh medium into which the appropriate amount of calcitrol or analog dissolved in dimethyl sulfoxide (DMSO) had been added, with the concentration of DMSO held constant at 0.1%. […] At 24-hour intervals following the initial treatment of the cells with compounds, 0.1 mg (50 μL of a 2 mg/mL solution) of MTT was added to each well. After 4 hours, the MTT was removed and DMSO added to dissolve the blue formazan dye. Using a microtiter plate reader, the A505 was then determined and cell number calculated from blank-subtracted absorbance values.

[3] = system: NCI-H23; assay: NCI 60 cell line screen (SRB), non-small cell lung cancer; format: cell-based; conditions: Homo sapiens, read-out: Log10 GI50 (converted)
[4] = system: HL-60(TB); assay: cells; conditions: Homo sapiens, HL-60, read-out: Log10 LC50 (converted)
[5] = system: CAKI-1; assay: NCI 60 cell line screen (SRB), renal cancer; conditions: Homo sapiens
[6] = system: UACC-62; assay: cells; format: cell-based; conditions: Homo sapiens, read-out: Log10 TGI (converted)
[7] = system: ACHN; assay: cells; conditions: Homo sapiens
[8] = system: 60 cell line panel; assay: NCI 60 cell line screen, whole panel; format: cell-based; conditions: panel
[9] = system: IGROVI; assay: cells; conditions: 60 cell, read-out: Log10 GI50 (converted)
[10] = system: EKVX; assay: NCI 60 cell line screen (SRB), non-small cell lung cancer; format: cell-based; conditions: Homo sapiens, read-out: Log10 GI50 (converted)
[11] = system: RXF 393; assay: cells; conditions: Homo sapiens

CO[C@H]1O[C@@H]2O[C@@]3(C)CC[C@H]4[C@H](C)CC[C@@H]([C@H]1C)[C@@]24OO3 [Artemether, artemether, reference compound]
IC50 [1]: 5.4 nM
IC50 compared with artemisinin [1]: lower than that of artemisinin

C[C@H]1[C@@H](C#Cc2cccc(C#C[C@H]3O[C@@H]4O[C@@]5(C)CC[C@H]6[C@H](C)CC[C@@H]([C@H]3C)[C@@]46OO5)c2)O[C@@H]2O[C@@]3(C)CC[C@H]4[C@H](C)CC[C@@H]1[C@@]24OO3 [Dimer 27]
antiproliferative activity compared with calcitriol [2]: at least as antiproliferative as calcitrol

COc1ccc([C@@H]2O[C@@H]3O[C@@]4(C)CC[C@H]5[C@H](C)CC[C@@H]([C@H]2C)[C@@]35OO4)c(OC)c1 [Monomer 13]
IC50 ([1]; survey data (preliminary)): 8.9 nM
IC50 compared with artemisinin [1]: lower than that of artemisinin

C[C@H]1[C@H](c2ccco2)O[C@@H]2O[C@@]3(C)CC[C@H]4[C@H](C)CC[C@@H]1[C@@]24OO3 [Monomer 17]
IC50 ([1]; survey data (preliminary)): 1.5 nM
IC50 compared with artemisinin [1]: lower than that of artemisinin

CC(=O)O[C@H]1C(=O)[C@@]2(C)[C@H]([C@H](OC(=O)c3ccccc3)[C@]3(O)C[C@H](OC(=O)[C@H](O)[C@@H](NC(=O)c4ccccc4)c4ccccc4)C(C)=C1C3(C)C)[C@]1(OC(C)=O)CO[C@@H]1C[C@@H]2O [Paclitaxel, paclitaxel, reference compound]
GI50 [3]: 0.0759 nM
CC50 [4]: > 29500 nM
CC50 ([5]; CAKI-1, read-out: Log10 LC50 (converted)): > 100000 nM
IC (TGI) ([5]; CAKI-1, read-out: Log10 TGI): 91200 nM
IC (TGI) [6]: 19500 nM
CC50 ([7]; read-out: Log10 LC50 (converted)): 35500 nM
IC (TGI) ([7]; read-out: Log10 TGI): 12600 nM
GI50 ([8]; 60 cell, read-out: Log10 GI50 Delta (converted)): 0.0708 nM
Log10 TGI Delta [8]: -4.54
Log10 TGI Range [8]: 7.20
GI50 [9]: 2.45 nM
GI50 [10]: 0.214 nM
CC50 ([11]; RXF 393, read-out: Log10 LC50 (converted)): > 100000 nM
IC (TGI) ([11]; RXF 393, read-out: Log10 TGI): > 100000 nM

C[C@H]1[C@@H](C#Cc2ccc(Cl)cc2)O[C@@H]2O[C@@]3(C)CC[C@H]4[C@H](C)CC[C@@H]1[C@@]24OO3 [Monomer 9, 10β-(4'-Chlorophenylethynyl) deoxoartemisinin]
IC50 ([1]; survey data (preliminary)): 16 nM

COc1ccc2cc([C@@H]3O[C@@H]4O[C@@]5(C)CC[C@H]6[C@H](C)CC[C@@H]([C@H]3C)[C@@]46OO5)c(OC)cc2c1 [Monomer 15, 10α-(2',7'-dimethoxynaphth-3'-yl)deoxoartemisinin]
IC50 ([1]; survey data (preliminary)): 11 nM

C[C@H]1[C@H](c2cccn2C)O[C@@H]2O[C@@]3(C)CC[C@H]4[C@H](C)CC[C@@H]1[C@@]24OO3 [Monomer 16, 10α-(N-methylpyrrol-2'-yl)deoxoartemisinin]
IC50 ([1]; survey data (preliminary)): 8.4 nM
IC50 compared with artemisinin [1]: lower than that of artemisinin

COc1cc(OC)c([C@@H]2O[C@@H]3O[C@@]4(C)CC[C@H]5[C@H](C)CC[C@@H]([C@H]2C)[C@@]35OO4)cc1[C@@H]1O[C@@H]2O[C@@]3(C)CC[C@H]4[C@H](C)CC[C@@H]([C@H]1C)[C@@]24OO3 [Dimer 26]
antiproliferative activity compared with calcitriol [2]: at least as antiproliferative as calcitrol

COc1cc(OC)c([C@@H]2O[C@@H]3O[C@@]4(C)CC[C@H]5[C@H](C)CC[C@@H]([C@H]2C)[C@@]35OO4)c(OC)c1 [Monomer 14]
IC50 ([1]; survey data (preliminary)): 11 nM

C[C@H]1[C@@H](C#Cc2ccc(C#C[C@H]3O[C@@H]4O[C@@]5(C)CC[C@H]6[C@H](C)CC[C@@H]([C@H]3C)[C@@]46OO5)cc2)O[C@@H]2O[C@@]3(C)CC[C@H]4[C@H](C)CC[C@@H]1[C@@]24OO3 [Dimer 28]
antiproliferative activity compared with calcitriol [2]: at least as antiproliferative as calcitrol
